Assay results taken from US9028845B2, “Chimeric immunomodulatory compounds and methods of using the same-IV” (Dynavax Technologies Corporation, priority 2001, dated 2015).
Entries after “also recorded” stand apart in the source; their conditions may differ. Marks after values point to notes of the source that are not given here.

Assays:
CD19+ B cells = assay: Human B cell proliferation assay (3H-thymidine incorporation); conditions: 2 μg/ml; for cpm1 / cpm2 / cpm3 / mean cpm / mean of both: B cells
PBMCs = assay: Human PBMC proliferation assay (3H-thymidine incorporation); type: cell-based; conditions: Experiment A; for mean cpm: 2 μg/ml
human PBMCs = assay: Human PBMC cytokine response assay (IFN-γ and IFN-α in cell-free medium by ELISA), with or without cPLGA; type: cell-based;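 as to IFN-α (pg/ml) mean: 20 µg/mL compound for 24 hours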;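 as to IFN-γ (pg/ml) mean: 20 µg/mL compound for 24 hours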
[1] = tested on: hepatitis B surface antigen (HBsAg); conditions: in vivo
[2] = donor 28066, 20 ug/ml, 24 h, + PLGA = premixed with 100 μg/ml cPLGA
[3] = donor 28067, 20 ug/ml, 24 h, + PLGA = premixed with 100 μg/ml cPLGA
[4] = donor 28068, 20 ug/ml, 24 h, + PLGA = premixed with 100 μg/ml cPLGA
[5] = mean of Donors 1-2, 20 μg/ml, 24 h
[6] = mean of Donors 9-12, 20 μg/ml, 24 h
[7] = mean of donors 110, 112, 119, 120, Table 14
[8] = mean of donors 28065-28068, 20 ug/ml, 24 h, + PLGA = premixed with 100 μg/ml cPLGA
[9] = mean of donors 28185-28188, Table 15

## 5′-TCGTCGA-3′-HEG-5′-ACGTTCG-3′-HEG-5′-AGATGAT-3′ [Compound C-8]
CD19+ B cells; 48 h plus 8 h 3H-thymidine pulse
  B cell proliferation, in words: cause B cells to proliferate
CD19+ B cells; Donor 146, Experiment A
  cpm1: 23815 cpm
  cpm2: 30066 cpm
  cpm3: 22969 cpm
CD19+ B cells; Donor 146 mean, Experiment A
  mean cpm: 25617 cpm
CD19+ B cells; Donor 147, Experiment A
  cpm1: 20914 cpm
  cpm2: 22370 cpm
  cpm3: 23659 cpm
CD19+ B cells; Donor 147 mean, Experiment A
  mean cpm: 22314 cpm
CD19+ B cells; donor 121, Experiment B
  cpm1: 2604 cpm
  cpm2: 12078 cpm
  cpm3: 17696 cpm
CD19+ B cells; donor 121 mean, Experiment B
  mean cpm: 10793 cpm
CD19+ B cells; donor 194, Experiment B
  cpm1: 9333 cpm
  cpm2: 9391 cpm
  cpm3: 7602 cpm
CD19+ B cells; donor 194 mean, Experiment B
  mean cpm: 8775 cpm
CD19+ B cells; mean of Donors 146 and 147, Experiment A
  mean of both: 23966 cpm
CD19+ B cells; mean of donors 121 and 194, Experiment B
  mean of both: 9784 cpm
PBMCs; Donor 146, 2 μg/ml
  cpm1: 47202 cpm
  cpm2: 40790 cpm
  cpm3: 44811 cpm
PBMCs; Donor 146 mean
  mean cpm: 44268 cpm
PBMCs; Donor 147, 2 μg/ml
  cpm1: 38845 cpm
  cpm2: 39733 cpm
  cpm3: 27981 cpm
PBMCs; Donor 147 mean
  mean cpm: 35520 cpm
PBMCs; mean of Donors 146 and 147, 2 μg/ml
  mean of both: 39894 cpm
Human PBMCs; Donor 1, 20 μg/ml, 24 h
  IFN-α (pg/ml) Donor 1: 1609 pg/mL
  IFN-γ (pg/ml) Donor 1: 1916 pg/mL
Human PBMCs; Donor 2, 20 μg/ml, 24 h
  IFN-α (pg/ml) Donor 2: 44 pg/mL
  IFN-γ (pg/ml) Donor 2: 696 pg/mL
Human PBMCs; Donor 9, 20 μg/ml, 24 h
  IFN-α Donor 9: 58
  IFN-γ Donor 9: 312
Human PBMCs; Donor 10, 20 μg/ml, 24 h
  IFN-α Donor 10: 30
  IFN-γ Donor 10: 35
Human PBMCs; Donor 11, 20 μg/ml, 24 h
  IFN-α Donor 11: 18
  IFN-γ Donor 11: 31
Human PBMCs; Donor 12, 20 μg/ml, 24 h
  IFN-α Donor 12: 49
  IFN-γ Donor 12: 28
Human PBMCs; Table 9, donor 28089
  IFN-α: 21 pg/mL
  IFN-γ: 62 pg/mL
Human PBMCs; Table 9, donor 28090
  IFN-α: 124 pg/mL
  IFN-γ: 52 pg/mL
Human PBMCs; Table 9, donor 28098
  IFN-α: 314 pg/mL
  IFN-γ: 205 pg/mL
Human PBMCs; Table 9, donor 28099
  IFN-α: 362 pg/mL
  IFN-γ: 116 pg/mL
Human PBMCs; Table 9, mean of donors
  IFN-α mean: 205 pg/mL
  IFN-γ mean: 109 pg/mL
Human PBMCs; Table 10, donor 28042
  IFN-α: 20 pg/mL
  IFN-γ: 468 pg/mL
Human PBMCs; Table 10, donor 28043
  IFN-α: 51 pg/mL
  IFN-γ: 939 pg/mL
Human PBMCs; Table 10, donor 28044
  IFN-α: 32 pg/mL
  IFN-γ: 1000 pg/mL
Human PBMCs; Table 10, donor 28045
  IFN-α: 5 pg/mL
  IFN-γ: 234 pg/mL
Human PBMCs; Table 10, mean of donors
  IFN-α mean: 27 pg/mL
  IFN-γ mean: 660 pg/mL
Human PBMCs; Table 11, donor 28042
  IFN-α: 78 pg/mL
  IFN-γ: 623 pg/mL
Human PBMCs; Table 11, donor 28043
  IFN-α: 25 pg/mL
  IFN-γ: 753 pg/mL
Human PBMCs; Table 11, donor 28044
  IFN-α: 52 pg/mL
  IFN-γ: 646 pg/mL
Human PBMCs; Table 11, donor 28045
  IFN-α: 256 pg/mL
  IFN-γ: 604 pg/mL
Human PBMCs; Table 11, mean of donors
  IFN-α mean: 103 pg/mL
  IFN-γ mean: 656 pg/mL
Human PBMCs; Table 13, donor 28156
  IFN-α: 102 pg/mL
  IFN-γ: 1612 pg/mL
Human PBMCs; Table 13, donor 28157
  IFN-α: 755 pg/mL
  IFN-γ: 742 pg/mL
Human PBMCs; Table 13, donor 28158
  IFN-α: 61 pg/mL
  IFN-γ: 340 pg/mL
Human PBMCs; Table 13, donor 28159
  IFN-α: 160 pg/mL
  IFN-γ: 197 pg/mL
Human PBMCs; Table 13, mean of donors
  IFN-α mean: 270 pg/mL
  IFN-γ mean: 723 pg/mL
Human PBMCs; donor 110, Table 14
  IFN-α: 196 pg/mL
  IFN-γ: 1152 pg/mL
Human PBMCs; donor 112, Table 14
  IFN-α: 30 pg/mL
  IFN-γ: 540 pg/mL
Human PBMCs; donor 119, Table 14
  IFN-α: 264 pg/mL
  IFN-γ: 136 pg/mL
Human PBMCs; donor 120, Table 14
  IFN-α: 42 pg/mL
  IFN-γ: 48 pg/mL
Human PBMCs; donor 28065 (high background), 20 ug/ml, 24 h, + PLGA = premixed with 100 μg/ml cPLGA, 1000 = outside assay limits
  IFN-γ (pg/ml) 28065: 1000 pg/mL
Human PBMCs; donor 28065, 20 ug/ml, 24 h, + PLGA = premixed with 100 μg/ml cPLGA
  IFN-α (pg/ml) 28065: 123 pg/mL
Human PBMCs; [2]
  IFN-α (pg/ml) 28066: 6 pg/mL
  IFN-γ (pg/ml) 28066: 19 pg/mL
Human PBMCs; [3]
  IFN-α (pg/ml) 28067: 96 pg/mL
  IFN-γ (pg/ml) 28067: 56 pg/mL
Human PBMCs; [4]
  IFN-α (pg/ml) 28068: 358 pg/mL
  IFN-γ (pg/ml) 28068: 419 pg/mL
Human PBMCs; donor 28185, Table 15
  IFN-a: 196 pg/mL
  IFN-g: 154 pg/mL
Human PBMCs; donor 28186, Table 15
  IFN-a: 31 pg/mL
  IFN-g: 25 pg/mL
Human PBMCs; donor 28187, Table 15
  IFN-a: 202 pg/mL
  IFN-g: 123 pg/mL
Human PBMCs; donor 28188, Table 15
  IFN-a: 4 pg/mL
  IFN-g: 9 pg/mL
Human PBMCs; [5]
  IFN-α (pg/ml) mean: 827 pg/mL
  IFN-γ (pg/ml) mean: 1306 pg/mL
Human PBMCs; [6]
  IFN-α mean: 39
  IFN-γ mean: 102
Human PBMCs; [7]
  IFN-α (pg/ml) mean: 133 pg/mL
  IFN-γ (pg/ml) mean: 469 pg/mL
Human PBMCs; [8]
  IFN-α (pg/ml) mean: 146 pg/mL
  IFN-γ (pg/ml) mean: 373 pg/mL
Human PBMCs; [9]
  IFN-a (pg/ml) mean: 108 pg/mL
  IFN-g (pg/ml) mean: 78 pg/mL
Human PBMCs; mean ×2, Table 15
  IFN-a (pg/ml) ×2: 217 pg/mL
Human PBMCs; mean ×4, Table 15
  IFN-g (pg/ml) ×4: 311 pg/mL
Human PBMCs; used alone (no cPLGA)
  immunomodulatory activity (IFN-γ / IFN-α secretion), in words: more active than other CG-containing CICs; also recorded: most active CICs
[1]
  Anti-HBsAg (mIU/ml) post-first, Mean: 22 mIU/ml
  Anti-HBsAg (mIU/ml) post-second, Mean: 9294** mIU/ml
